Columns and labels:
[1] = target: T1, human recombinant adrenergic α2C receptor (Homo sapiens, UniProt P18825); test: Adrenergic α2C radioligand binding assay ([3H]MK-912); conditions: compound at 0.1 μM; 1 nM [3H]MK-912; insect Sf9 cells; read-out: Percent Inhibition of ligand binding, Adrenergic (0.1 μM) a2C
T1 construct: expressed in transfected cells; host or cells: insect Sf9 cells
T1 sequence (P18825 1-462): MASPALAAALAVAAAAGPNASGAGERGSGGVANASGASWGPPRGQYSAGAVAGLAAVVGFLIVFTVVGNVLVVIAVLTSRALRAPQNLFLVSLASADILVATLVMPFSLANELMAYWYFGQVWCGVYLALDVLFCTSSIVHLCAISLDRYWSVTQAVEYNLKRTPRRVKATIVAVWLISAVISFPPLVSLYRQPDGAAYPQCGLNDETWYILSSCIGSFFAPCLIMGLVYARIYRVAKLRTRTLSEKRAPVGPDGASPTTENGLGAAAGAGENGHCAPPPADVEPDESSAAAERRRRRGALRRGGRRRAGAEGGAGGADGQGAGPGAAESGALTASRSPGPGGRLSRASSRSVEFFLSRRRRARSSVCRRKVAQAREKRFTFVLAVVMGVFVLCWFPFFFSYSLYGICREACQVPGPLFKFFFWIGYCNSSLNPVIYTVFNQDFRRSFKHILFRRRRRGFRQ
Description: To evaluate in radioligand binding assays the activity of compounds of the invention, human recombinant adrenergic α2C receptor expressed in insect Sf9 cells (Uhlen S et al. J. Pharmacol. Exp. Ther. 271:1558, 1994) in a modified Tris-HCl buffer (50 mM Tris-HCl, pH 7.4, 12.5 mM MgCl2, 2 mM EDTA) is used. Compounds of the invention are incubated with 1 nM [^3H]MK-912 for 60 min at 25° C. Non-specific binding is estimated in the presence of 10 μM WB-4101. Receptor proteins are filtered and washed, the filters are then counted to determine [^3H]MK-912 specifically bound. Compounds are screened at 1 μM or lower, using 1% DMSO as vehicle. Compounds of the invention are tested in this biochemical assay and percent inhibition of specific binding is determined.

[2] = target: T2, human recombinant histamine H2 receptor (Homo sapiens, UniProt P25021); test: Histamine H2 radioligand binding assay ([125I]Aminopotentidine); conditions: compound at 1 μM; 0.1 nM [125I]Aminopotentidine; receptor expressed in CHO-K1 cells
T2 construct: expressed in transfected cells; host or cells: Chinese hamster ovary (CHO) K1 cells
T2 sequence (P25021 whole entry): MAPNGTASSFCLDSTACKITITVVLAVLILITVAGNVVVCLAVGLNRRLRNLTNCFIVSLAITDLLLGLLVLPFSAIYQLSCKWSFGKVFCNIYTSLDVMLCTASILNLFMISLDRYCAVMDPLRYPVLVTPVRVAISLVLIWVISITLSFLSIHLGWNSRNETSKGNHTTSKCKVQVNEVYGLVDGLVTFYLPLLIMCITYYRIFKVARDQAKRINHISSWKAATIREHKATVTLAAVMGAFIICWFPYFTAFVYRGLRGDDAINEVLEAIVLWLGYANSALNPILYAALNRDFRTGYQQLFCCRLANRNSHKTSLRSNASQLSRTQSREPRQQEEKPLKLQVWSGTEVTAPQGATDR
Description: To evaluate in radioligand binding assays the activity of compounds of the invention, human recombinant histamine H2 receptor expressed in Chinese hamster ovary (CHO) K1 cells (Ruat, M., Proc. Natl. Acad. Sci. USA. 87(5):1658, 1990) in a 50 mM Phosphate buffer, pH 7.4 was used. Compounds of the invention were incubated with 0.1 nM [^125I]Aminopotentidine for 120 min at 25° C. Non-specific binding was estimated in the presence of 3 μM Tiotidine. Receptor proteins were filtered and washed, the filters were then counted to determine [^125I]Aminopotentidine specifically bound. Compounds were screened at 1 μM or lower, using 1% DMSO as vehicle. Biochemical assay results are presented as the percent inhibition of specific binding in Table 2.

[3] = target: human recombinant dopamine D2L receptor (Homo sapiens, UniProt P14416); test: Dopamine D2L radioligand binding assay ([3H]Spiperone); conditions: compound at 1 μM, 0.16 nM [3H]Spiperone, CHO cells, read-out: Percent Inhibition of ligand binding, Dopamine (1μM)
human recombinant dopamine D2L receptor, sequence (P14416 whole entry): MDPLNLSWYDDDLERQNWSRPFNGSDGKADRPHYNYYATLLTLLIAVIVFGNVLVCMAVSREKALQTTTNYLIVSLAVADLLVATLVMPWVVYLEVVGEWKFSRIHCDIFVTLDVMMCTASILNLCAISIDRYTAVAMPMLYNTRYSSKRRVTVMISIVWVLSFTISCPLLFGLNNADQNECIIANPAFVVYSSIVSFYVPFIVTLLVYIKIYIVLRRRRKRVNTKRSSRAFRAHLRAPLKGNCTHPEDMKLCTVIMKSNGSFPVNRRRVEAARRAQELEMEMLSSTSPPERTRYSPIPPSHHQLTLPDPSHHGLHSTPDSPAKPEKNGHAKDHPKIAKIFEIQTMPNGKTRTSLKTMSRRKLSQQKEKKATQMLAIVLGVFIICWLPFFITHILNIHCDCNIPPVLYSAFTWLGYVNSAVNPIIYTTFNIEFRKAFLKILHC
Description: (§1) Compounds of the invention were incubated with 0.16 nM [^3H]Spiperone for 120 min at 25° C. Non-specific binding was estimated in the presence of 10 μM Haloperidol. Receptor proteins were filtered and washed, the filters were then counted to determine [^3H]Spiperone specifically bound. Compounds were screened at 1 μM or lower, using 1% DMSO as vehicle. Biochemical assay results are presented as the percent inhibition of specific binding in Table 3.

[4] = target: T3, human recombinant serotonin (5-Hydroxytryptamine) 5-HT2C receptor (Homo sapiens, UniProt P28335); test: Serotonin 5-HT2C radioligand binding assay ([3H]Mesulergine); conditions: 1 nM [3H]Mesulergine, CHO-K1 cells; for inhibition at 1 µM: compound at 1 μM, read-out: Percent Inhibition of ligand binding, Serotonin (1 μM) 5-HT2C; for inhibition at 0.1 µM: compound at 0.1 μM, read-out: Percent Inhibition of ligand binding, Serotonin (0.1 μM) 5-HT2C
T3 construct: expressed in transfected cells; host or cells: Chinese hamster ovary (CHO-K1) cells
T3 sequence (P28335 33-458): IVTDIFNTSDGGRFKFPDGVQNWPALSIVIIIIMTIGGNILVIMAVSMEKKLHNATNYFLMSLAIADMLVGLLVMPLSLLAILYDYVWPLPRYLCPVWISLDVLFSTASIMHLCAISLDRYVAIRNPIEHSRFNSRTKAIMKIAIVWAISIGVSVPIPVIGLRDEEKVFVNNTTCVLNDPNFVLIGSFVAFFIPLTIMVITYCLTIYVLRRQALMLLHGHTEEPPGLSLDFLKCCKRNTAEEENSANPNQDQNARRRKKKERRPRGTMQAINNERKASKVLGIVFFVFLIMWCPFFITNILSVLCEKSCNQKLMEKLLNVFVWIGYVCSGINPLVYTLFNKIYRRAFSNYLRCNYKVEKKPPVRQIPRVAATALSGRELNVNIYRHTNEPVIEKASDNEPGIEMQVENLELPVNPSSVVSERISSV
Description: as §1, with “1” for “0.16”, “[^3H]Mesulergine” for “[^3H]Spiperone”, “60” for “120”, “1” for “10”, “Mianserin.” for “Haloperidol.”, “4.” for “3.”

[5] = target: T4, human recombinant serotonin (5-Hydroxytryptamine) 5-HT6 receptor (Homo sapiens, UniProt P50406); test: Serotonin 5-HT6 radioligand binding assay ([3H]LSD); conditions: HeLa cells; for inhibition at 1 µM: compound at 1 μM, read-out: Percent Inhibition of ligand binding, Serotonin (1 μM) 5-HT6; for inhibition at 0.1 µM: compound at 0.1 μM, read-out: Percent Inhibition of ligand binding, Serotonin (0.1 μM) 5-HT6
T4 construct: expressed in transfected cells; host or cells: human HeLa cells
T4 sequence (P50406 whole entry): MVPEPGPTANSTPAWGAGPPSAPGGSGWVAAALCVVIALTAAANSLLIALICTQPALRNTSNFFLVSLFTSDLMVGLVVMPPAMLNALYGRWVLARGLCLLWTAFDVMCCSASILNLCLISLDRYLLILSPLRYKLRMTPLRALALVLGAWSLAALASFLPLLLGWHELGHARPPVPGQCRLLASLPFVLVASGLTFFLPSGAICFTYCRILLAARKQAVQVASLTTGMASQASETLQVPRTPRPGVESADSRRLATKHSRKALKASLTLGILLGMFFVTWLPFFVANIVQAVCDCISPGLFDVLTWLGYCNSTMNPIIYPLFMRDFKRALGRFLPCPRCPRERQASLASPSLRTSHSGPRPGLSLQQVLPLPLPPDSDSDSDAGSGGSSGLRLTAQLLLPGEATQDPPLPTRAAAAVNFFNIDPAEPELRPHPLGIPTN
Description: Compounds of the invention were incubated with 1.5 nM [3H]Lysergic acid diethylamide (LSD) for 120 min at 37° C. […] Receptor proteins were filtered and washed, the filters were then counted to determine [3H]LSD specifically bound. Compounds were screened at 1 μM or lower, using 1% DMSO as vehicle. Biochemical assay results are presented as the percent inhibition of specific binding in Table 4.

SMILES	inhibition at 0.1 µM [1] [%]	inhibition at 1 µM [2] [%]	inhibition at 1 µM [3] [%]	inhibition at 1 µM [4] [%]	inhibition at 1 µM [5] [%]	inhibition at 0.1 µM [4] [%]	inhibition at 0.1 µM [5] [%]
Cc1ccc2c(c1)c1c(n2CC(O)c2ccncc2)CCN(C)C1 (centres unmarked) [Compound 1-8, 2-(2,8-dimethyl-3,4-dihydro-1H-pyrido[4,3-b]indol-5(2H)-yl)-1-(pyridin-4-yl)ethanol]	5	–	–	–	–	–	–
CN1CCc2c(c3cc(Cl)ccc3n2CC(O)c2ccncc2)C1 (centres unmarked) [Compound 1-11, 2-(8-chloro-2-methyl-3,4-dihydro-1H-pyrido[4,3-b]indol-5(2H)-yl)-1-(pyridin-4-yl)ethanol]	26	–	–	–	–	–	–
Cc1ccc2c(c1)c1c(n2CC(C)(O)c2ccc(O)cc2)CCN(C)C1 (centres unmarked) [Compound 1-15, 4-(1-(2,8-dimethyl-3,4-dihydro-1H-pyrido[4,3-b]indol-5(2H)-yl)-2-hydroxypropan-2-yl)phenol]	5	–	–	–	–	–	–
CN1CCc2c(c3cc(Cl)c(Cl)cc3n2CC(C)(O)c2ccncc2)C1 (centres unmarked) [Compound 1-17, 1-(7,8-dichloro-2-methyl-3,4-dihydro-1H-pyrido[4,3-b]indol-5(2H)-yl)-2-(pyridin-4-yl)propan-2-ol]	39	–	–	–	–	–	–
COc1ccc([C@](C)(O)Cn2c3c(c4cc(C)ccc42)CN(C)CC3)cc1 [Compound 1-20, (S)-1-(2,8-Dimethyl-3,4-dihydro-1H-pyrido[4,3-b]indol-5(2H)-yl)-2-(4-methoxyphenyl)propan-2-ol]	28	–	–	–	–	–	–
Cc1ccc2c(c1)c1c(n2CCc2ccc(C)nc2)CCN(CCC#N)C1 [Compound 1-34, 3-(8-methyl-5-(2-(6-methylpyridin-3-yl)ethyl)-3,4-dihydro-1H-pyrido[4,3-b]indol-2(5H)-yl)propanenitrile]	–	0	-4	16	6	–	–
Cc1ccc2c(c1)c1c(n2CC(=O)c2ccccc2)CCN(C)C1 [Compound 1-35, 2-(2,8-dimethyl-3,4-dihydro-1H-pyrido[4,3-b]indol-5(2H)-yl)-1-phenylethanone]	–	11	4	75	14	–	–
CN1CCc2c(c3cc(Cl)ccc3n2CC(=O)c2ccccc2)C1 [Compound 1-36, 2-(8-chloro-2-methyl-3,4-dihydro-1H-pyrido[4,3-b]indol-5(2H)-yl)-1-phenylethanone]	–	48	73	94	71	–	–
Cc1ccc2c(c1)c1c(n2CC(C)c2ccncc2)CCN(C)C1 (centres unmarked) [Compound 1-46, 2,8-dimethyl-5-(2-(pyridin-4-yl)propyl)-2,3,4,5-tetrahydro-1H-pyrido[4,3-b]indole]	22	–	37	–	–	83	45
Cc1ccc2c(c1)c1c(n2CC(C)(C)c2ccncc2)CCN(C)C1 [Compound 1-49, 2,8-dimethyl-5-(2-methyl-2-(pyridin-4-yl)propyl)-2,3,4,5-tetrahydro-1H-pyrido[4,3-b]indole]	43	–	54	–	–	96	38
CC[C@](O)(Cn1c2c(c3cc(C)ccc31)CN(C)CC2)c1ccc(F)cc1 [Compound 1-60, (R)-1-(2,8-Dimethyl-3,4-dihydro-1H-pyrido[4,3-b]indol-5(2H)-yl)-2-(4-fluorophenyl)butan-2-ol]	9	–	-14	–	–	67	48
CCCC[C@](O)(Cn1c2c(c3cc(Cl)ccc31)CN(C)CC2)c1ccc(F)cc1 [Compound 1-61, (R)-1-(8-Chloro-2-methyl-3,4-dihydro-1H-pyrido[4,3-b]indol-5(2H)-yl)-2-(4-fluorophenyl)hexan-2-ol]	11	–	14	–	–	88	68
CC[C@@](O)(Cn1c2c(c3cc(C)ccc31)CN(C)CC2)c1ccncc1 [Compound 1-62, (S)-1-(2,8-Dimethyl-3,4-dihydro-1H-pyrido[4,3-b]indol-5(2H)-yl)-2-(pyridine-4-yl)butan-2-ol]	-5	–	9	–	–	33	28
CC[C@](O)(Cn1c2c(c3cc(C)ccc31)CN(C)CC2)c1ccncc1 [Compound 1-63, (R)-1-(2,8-Dimethyl-3,4-dihydro-1H-pyrido[4,3-b]indol-5(2H)-yl)-2-(pyridine-4-yl)butan-2-ol]	4	–	14	–	–	25	25
Cc1ccc2c(c1)c1c(n2CCc2ccc(C)nc2)CCN(CC(F)(F)F)C1 [Compound 1-65, 8-methyl-5-(2-(6-methylpyridin-3-yl)ethyl)-2-(2,2,2-trifluoroethyl)-2,3,4,5-tetrahydro-1H-pyrido[4,3-b]indole]	-1	–	12	–	–	6	-6
CC[C@@](O)(Cn1c2c(c3cc(C)ccc31)CN(C)CC2)c1ccc(F)cc1 [Compound 1-66, (S)-1-(2,8-dimethyl-3,4-dihydro-1H-pyrido[4,3-b]indol-5(2H)-yl)-2-(4-fluorophenyl)butan-2-ol]	18	–	6	–	–	84	72
CCCC[C@@](O)(Cn1c2c(c3cc(Cl)ccc31)CN(C)CC2)c1ccc(F)cc1 [Compound 1-67, (S)-1-(8-chloro-2-methyl-3,4-dihydro-1H-pyrido[4,3-b]indol-5(2H)-yl)-2-(4-fluorophenyl)hexan-2-ol]	13	–	20	–	–	51	25

From patent US9255094B2, “Pyrido[4,3-B]indoles and methods of use” (Medivation Technologies, Inc., priority 2009, dated 2016)
